Experiments:
[1] = tested on: HCT116 (Colon) cells; assay: Sulforhodamine B (SRB) assay, HCT116; type: cell-based, human; details: for TGI / GI50: HCT116 Colon, SRB, 48 h; for CC50 / GI50: Homo sapiens; for CC50: HCT-116, 48 h, read-out: LC50; for GI50: HCT-116
Description: (§1) Sulforhodamine B (SRB) assays were performed according to standard National Cancer Institute Guidelines. Briefly, human tumor cells from different cancer panels were seeded into 96 well plates in […] (plating densities ranging from 5-40,000 cells/well depending on the doubling time of individual cell lines) in serum-containing media for twenty-four hours prior to the addition of the compounds to be assayed. After 24 hours, one plate of each cell line was fixed in situ with trichloroacetic acid (TCA). The fixed slides were used to determine the cell population for each cell line at the time of drug addition (Tz). Each compound to be tested was solubilized in dimethyl sulfoxide (DMSO) and the desired concentration was then added to the medium and diluted serially 1:10 to provide a total of five or ten drug concentrations plus control (in a final volume of 200 μL). The starting dose before any dilution was 100 uM for all compounds.
(§2) Following drug addition, each culture was incubated for forty-eight hours. The assay was terminated with the addition of cold TCA. The supernatant was discarded, and the plates were washed with tap water and air dried. SRB solution was then added to each well. After staining, the bound stain was solubilized and the absorbance was read on an automated plate reader at a wavelength of 515 nm.
(§3) Using the absorbance measurements [time zero, (Tz), control growth, (C), and test growth in the presence of drug at the ten concentration levels (Ti)], the percentage growth was calculated at each of the drug concentrations levels. Percentage growth inhibition was calculated as:
(§4) [(Ti−Tz)/(C−Tz)]×100 for concentrations for which Ti>/=Tz
(§5) [(Ti−Tz)/Tz]×100 for concentrations for which Ti<Tz.
(§6) Three dose response parameters were calculated for each experimental agent. Growth inhibition of 50% (GI50) was calculated from [(Ti−Tz)/(C−Tz)]×100=50, which was the drug concentration resulting in a 50% reduction in the net protein increase (as measured by SRB staining) in control cells during the drug. The drug concentration resulting in total growth inhibition (TGI) was calculated from Ti=Tz. The LC50 (concentration of drug resulting in a 50% reduction in the measured protein at the end of the drug treatment as compared to that at the beginning) indicating a net loss of cells following treatment was calculated from [(Ti−Tz)/Tz]×100=−50.
(§7) Values were calculated for each of these three parameters when the level of activity was reached; however, if the effect was not reached or was exceeded, the value for that parameter was expressed as greater or less than the maximum or minimum concentration tested.

[2] = tested on: NCI-ADR-RES (Ovarian) cells; assay: Sulforhodamine B (SRB) assay, NCI-ADR-RES (multidrug resistant); type: cell-based, human; details: 48 h; for CC50 / GI50: Homo sapiens; for CC50: NCI/ADR-RES, read-out: LC50; for GI50 / TGI: NCI-ADR-RES Ovarian, SRB
Description: as §1, §2, §3, §4, §5, §6, §7

[3] = tested on: DU145 (Prostate) cells; assay: MTT cell proliferation/viability assay, DU145; type: cell-based; details: Homo sapiens, DU-145, 72 h
Description: Cell proliferation/viability was assessed by the MTT [3-(4,5-dimethylthiazol-2-yl)-2,5-diphenyltetrazolium bromide] assay, which is commercially available (Sigma, St. Louis, Mo.). Cells were cultured in 96-well plates for twenty-four hours (7-10.000 cells/well) and incubated with various concentrations of the different compounds—as indicated in the Figures—in serum-containing medium (or left untreated) for seventy-two hours. At the end of incubation, the medium was aspirated and MTT dissolved in RPMI 1640 w/o phenol red was added to each well to a final concentration of 0.25 mg/ml. After four hours incubation in the dark (37° C., 5% CO2) the supernatant was discarded. The converted dye (blue formazan crystals) was solubilized by adding 200 μl dimethylsulfoxide to each well. Absorbance was measured at 550 nm with reference at 655 nm using a spectrophotometer with the respective filters. All assays were performed in triplicate.
The effect of the different compounds on the proliferation and viability of two cancer cell lines (DU145/prostate and CAKI/renal) was tested through quantitative (4,5-dimethylthiazol-2-yl)-2,5-diphenyltetrazolium bromide (MTT) assays.

[4] = tested on: PC3 (Prostate) cells; assay: Sulforhodamine B (SRB) assay, PC3; type: cell-based; details: Homo sapiens, Prostate cell, 48 h; for CC50: read-out: LC50; for GI50 / IC (TGI): PC3 Prostate, SRB
Description: as §1, §2, §3, §4, §5, §6, §7

[5] = tested on: A549 (Lung) cells; assay: Sulforhodamine B (SRB) assay, A549; type: cell-based; details: Homo sapiens; for CC50: A549, 48 h, read-out: LC50; for GI50 / IC (TGI): A549 Lung, SRB, 48 h
Description: as §1, §2, §3, §4, §5, §6, §7

[6] = tested on: MCF7 (Breast) cells; assay: Sulforhodamine B (SRB) assay, MCF7; type: cell-based, human; details: for CC50 / GI50: Homo sapiens; for CC50: MCF7, 48 h, read-out: LC50; for GI50 / TGI: MCF7 Breast, SRB, 48 h
Description: as §1, §2, §3, §4, §5, §6, §7

[7] = tested on: 7 different cell lines (lung, ovarian, prostate, CNS, breast, colon); assay: SRB assays across 7 cell lines; type: cell-based, human; details: for CC50 / GI50: Homo sapiens; for CC50: read-out: LC50 values; for GI50 / GI50 action in most cell lines: SRB; for GI50: average over cell lines; for viability and/or cell proliferation of cell lines: cell lines representative of lung, breast, CNS, prostate, ovarian, colon and renal neoplasias; for anti-cancer activity in SRB assays: multiple cell lines
Description: as §1, §2, §3, §4, §5, §6, §7
SRB provides a colorimetric measure of a compound's anti-cancer activity. SRB assays were performed with compounds of the invention in 7 different cell lines, which represent six different tumor panels (lung, ovarian, prostate, CNS, breast, colon).

[8] = molecular target: Na+/K+-ATPase (Adenosine 5′-Triphosphatase isolated from porcine cerebral cortex); assay: Na+/K+-ATPase inhibitory activity, colorimetric Adenosine 5′-Triphosphatase Enzymatic Assay (Sigma); type: biochemical; details: enzyme from porcine cerebral cortex, 0.5 units/ml
Description: The compound inhibitory effect on ATPase activity was assessed in vitro using the colorimetric Adenosine 5′-Triphosphatase Enzymatic Assay of Sigma (St. Louis, Mo.) according to the manufacturer's instructions. This assay utilizes Adenosine 5′-Triphosphatase isolated from porcine cerebral cortex. Each reaction was performed in a final volume of […] using 0.5 units/ml enzyme in the presence of the different inhibitors. […] IC50 values were determined using the Origin® program software (OriginLab, Northampton, Mass.).

[9] = tested on: H460 (Lung) cells; assay: Sulforhodamine B (SRB) assay, H460; type: cell-based, human; details: for TGI / GI50: H460 Lung, SRB, 48 h; for CC50 / GI50: Homo sapiens; for CC50: NCI-H460, 48 h, read-out: LC50; for GI50: NCI-H460
Description: as §1, §2, §3, §4, §5, §6, §7

[10] = tested on: SF268 (CNS) cells; assay: Sulforhodamine B (SRB) assay, SF268; type: cell-based; details: Homo sapiens; for CC50: SF-268, 48 h, read-out: LC50; for GI50 / IC (TGI): SF-268, SF268 CNS, SRB, 48 h
Description: as §1, §2, §3, §4, §5, §6, §7

| SMILES | CC50 [1] | GI50 [1] | CC50 [2] | GI50 [2] | IC50 [3] | CC50 [4] | GI50 [4] | IC (TGI) [4] | CC50 [5] | GI50 [5] | IC (TGI) [5] | CC50 [6] | GI50 [6] | viability and/or cell proliferation of cell lines [7] | IC50 [8] | CC50 [9] | GI50 [9] | CC50 [10] | GI50 [10] | IC (TGI) [10] | further results |
| --- | --- | --- | --- | --- | --- | --- | --- | --- | --- | --- | --- | --- | --- | --- | --- | --- | --- | --- | --- | --- | --- |
| CON=C1CC2C(CC[C@]3(C)C(=O)C(F)CC23)[C@@]2(C)CCC(=NOC3CCNC3)CC12 (stereo in doubt) [Compound 8, (5S,10R,13S,16R)-16a-fluoro-6-(methoxyimino)-10,13-dimethyl-3-((R)-pyrrolidin-3-yloxyimino)-tetradecahydro-2H-cyclopenta[a]phenanthren-17(14H)-one] | 1.04 µM | 0.035 µM | 0.508 µM | 0.014 µM | 0.223 µM | 0.919 µM | 0.009 µM | 0.199 µM | 0.075 µM | 0.006 µM | 0.029 µM | 6.96 µM | 0.024 µM | reduced the viability and/or cell proliferation | 0.311 µM | 0.074 µM | 0.004 µM | 0.085 µM | 0.004 µM | 0.038 µM | TGI [1]: 0.236 µM; TGI [2]: 0.071 µM; TGI [6]: 0.327 µM; CC50 [7]: < 1 µM; GI50 [7]: < 1 µM; anti-cancer activity in SRB assays [7]: best activity; TGI [9]: 0.027 µM |
| CON=C1CC2C(CC[C@]3(C)C(=O)CCC23)[C@@]2(CO)CCC(=NOC3CCNC3)CC12 (stereo in doubt) [Compound 30, (5S,10S,13S)-10-(hydroxymethyl)-6-methoxy-imino-13-methyl-3-((S)-pyrrolidin-3-yloxyimino)-tetradecahydro-14H-cyclopenta[a]phenanthrene-17-one] | – | – | – | – | 6.7 µM | 75.2 µM | 7.71 µM | 36700 µM | 29.6 µM | 4.07 µM | – | – | – | – | – | – | – | 78.4 µM | 5.62 µM | 25800 µM | – |
| C=C1CC2C(CC[C@]3(C)C(=O)C(F)CC23)[C@@]2(C)CCC(=NOC3CCNC3)CC12 (stereo partly drawn) [Compound 6, (5S,10R,13S,16R)-16a-fluoro-6-methylene-10,13-dimethyl-3-((R)-pyrrolidin-3-yloxyimino)-tetradecahydro-2H-cyclopenta[a]phenanthren-17(14H)-one] | 0.728 µM | 0.009 µM | 0.079 µM | 0.018 µM | – | 1.24 µM | 0.003 µM | 0.055 µM | 0.053 µM | 0.005 µM | 0.008 µM | 1.28 µM | 0.009 µM | reduced the viability and/or cell proliferation | – | 0.053 µM | 0.003 µM | 0.071 µM | < 0.001 µM | 0.02 µM | TGI [1]: 0.088 µM; TGI [2]: 0.049 µM; TGI [6]: 0.082 µM; CC50 [7]: < 1 µM; GI50 [7]: < 1 µM; anti-cancer activity in SRB assays [7]: best activity; TGI [9]: 0.008 µM |
| C[C@]12CCC(=NO[C@H]3CCNC3)C(c3ccccc3)C1CCC1C2CC[C@]2(C)C(=O)CCC12 (stereo partly drawn) [Compound 21, (10R,13S)-10,13-dimethyl-4-phenyl-3-((S)-pyrrolidin-3-yloxyimino)-tetradecahydro-2H-cyclopenta[a]phenanthren-17(14H)-one] | – | – | – | – | 13.5 µM | 49.1 µM | 4.46 µM | – | 45.3 µM | 4.41 µM | – | – | – | reduced the viability and/or cell proliferation | 19.3 µM | – | – | 57.2 µM | 4.16 µM | 8450 µM | GI50 action in most cell lines [7]: single-digit micromolar |
| C[C@]12CCC3C(CC[C@H]4CC(=NO[C@H]5CCNC5)CC[C@]34CO)C1CCC2=O (stereo partly drawn) [Compound 25, (5S,10R,13S)-10-(hydroxymethyl)-13-methyl-3-((S)-pyrrolidin-3-yloxyimino)-tetradecahydro-2H-cyclopenta[a]phenanthren-17(14H)-one] | – | – | – | – | 15 µM | 9.44 µM | 3.89 µM | – | > 100 µM | 4.81 µM | 9410 µM | > 100 µM | 6.17 µM | reduced the viability and/or cell proliferation | 0.525 µM | > 100 µM | 4.37 µM | 85.4 µM | 5.74 µM | 31300 µM | GI50 action in most cell lines [7]: single-digit micromolar |
| C[C@]12CCC3C(CC(=O)[C@H]4CC(=NO[C@H]5CCNC5)CC[C@]34CO)C1CCC2=O (stereo partly drawn) [Compound 28, (5S,10S,13S)-10-(hydroxymethyl)-13-methyl-3-((S)-pyrrolidin-3-yloxyimino)-tetradecahydro-14H-cyclopenta[a]phenanthrene-6,17-dione] | – | – | – | – | 87 µM | 157 µM | 53.5 µM | – | > 100 µM | 62.6 µM | > 100 µM | > 100 µM | 76.5 µM | reduced the viability and/or cell proliferation | 12.9 µM | > 100 µM | 57.6 µM | > 100 µM | 63.8 µM | > 100 µM | TGI [6]: >100 µM; TGI [9]: >100 µM |
| CC1CC2C(CC[C@]3(C)C(=O)C(F)CC23)[C@@]2(C)CCC(=NOC3CCNC3)C=C12 (stereo partly drawn) [Compound 86, 16-Fluoro-6,10,13-trimethyl-1,6,7,8,9,10,11,12,13,14,15,16-dodecahydro-2H-cyclopenta[a]phenanthrene-3,17-dione 3-(O-pyrrolidin-3-yl-oxime)] | 58.8 µM | 3.71 µM | 48.1 µM | 4.13 µM | – | 72.4 µM | 5.37 µM | 9780 µM | 8.05 µM | 2.45 µM | 5250 µM | 59.3 µM | 4.35 µM | reduced the viability and/or cell proliferation | – | 8.07 µM | 2.57 µM | 8.11 µM | 1.86 µM | 4980 µM | – |
